Legend:
[1] = molecular target: B. suis histidinol dehydrogenase (Brucella suis biovar 1, UniProt Q8G2R2); test: biochemical; format: biochemical
B. suis = test: microbe, parasite or virus in culture; format: cell-based, Brucella suis; conditions: for inhibition at 50 µM / inhibition at 100 µM: Brucella suis, 168 h, read-out: Effects on the growth of B. suis (%) (inhibition of bacterial growth)

Sequence of B. suis histidinol dehydrogenase (Q8G2R2 whole entry, looked up): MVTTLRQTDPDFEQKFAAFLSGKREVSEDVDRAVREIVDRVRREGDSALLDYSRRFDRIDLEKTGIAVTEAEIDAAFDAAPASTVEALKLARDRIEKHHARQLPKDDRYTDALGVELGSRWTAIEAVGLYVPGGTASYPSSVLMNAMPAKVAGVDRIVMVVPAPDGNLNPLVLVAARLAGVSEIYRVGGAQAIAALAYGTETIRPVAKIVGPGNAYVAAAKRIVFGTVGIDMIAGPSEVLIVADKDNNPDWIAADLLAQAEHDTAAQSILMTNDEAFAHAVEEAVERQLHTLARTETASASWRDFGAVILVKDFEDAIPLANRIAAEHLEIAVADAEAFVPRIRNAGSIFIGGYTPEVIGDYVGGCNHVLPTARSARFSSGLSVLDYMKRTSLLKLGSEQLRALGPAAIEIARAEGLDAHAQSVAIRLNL

| Compound | melting point | IC50 [1] | also measured |
| --- | --- | --- | --- |
| N[C@@H](Cc1c[nH]cn1)C(=O)Cc1ccc(-c2ccc(Br)cc2)cc1 (hydrate or solvate) | 199 °C (dec.) |  |  |
| N[C@@H](Cc1c[nH]cn1)C(=O)Cc1ccc(-c2ccc(-c3ccccc3)cc2)cc1 (hydrate or solvate) | 200 °C (dec.) |  |  |
| N[C@@H](Cc1c[nH]cn1)C(=O)Cc1ccc(/C=C/c2ccc(-c3ccccc3)cc2)cc1 (hydrate or solvate) | 200 °C (dec.) |  |  |
| N[C@@H](Cc1c[nH]cn1)C(=O)Cc1ccc(C#Cc2ccc(-c3ccccc3)cc2)cc1 (hydrate or solvate) | 196 °C (dec.) |  |  |
| Cc1ccc(-c2ccc(CC(=O)[C@@H](N)Cc3c[nH]cn3)cc2)cc1 (hydrate or solvate) [Compound 2a, (3S)-3-amino-4-(1H-imidazol-4-yl)-1-(4′-methylbiphenyl-4-yl)butan-2-one dihydrochlorhydrate] | 203 °C (dec.) |  |  |
| CCCCc1ccc(-c2ccc(CC(=O)[C@@H](N)Cc3c[nH]cn3)cc2)cc1 (hydrate or solvate) [Compound 2b, (3S)-3-amino-1-(4′-butylbiphenyl-4-yl)-4-(1H-imidazol-4-yl) butan-2-one dihydrochlorhydrate] | 155 °C (dec.) |  |  |
| COc1ccc(-c2ccc(CC(=O)[C@@H](N)Cc3c[nH]cn3)cc2)cc1 (hydrate or solvate) [Compound 2c, (3S)-3-amino-4-(1H-imidazol-4-yl)-1-(4′-methoxybiphenyl-4-yl)butan-2-one dihydrochlorhydrate] | 210 °C (dec.) |  |  |
| N[C@@H](Cc1c[nH]cn1)C(=O)Cc1ccc(-c2ccc(C(F)(F)F)cc2)cc1 (hydrate or solvate) [Compound 2d, (3S)-3-amino-4-(1H-imidazol-4-yl)-1-[4′-(trifluoromethyl)biphenyl-4-yl]butan-2-one dihydrochlorhydrate] | 149 °C (dec.) |  |  |
| N[C@@H](Cc1c[nH]cn1)C(=O)Cc1ccc(-c2ccc(Oc3ccccc3)cc2)cc1 (hydrate or solvate) [Compound 2f, (3S)-3-amino-4-(1H-imidazol-4-yl)-1-(4′-phenoxybiphenyl-4-yl)butan-2-one dihydrochlorhydrate] | 198 to 200 °C |  |  |
| N[C@@H](Cc1c[nH]cn1)C(=O)Cc1ccc(-c2ccc3ccccc3c2)cc1 (hydrate or solvate) [Compound 2h, (3S)-3-amino-4-(1H-imidazol-4-yl)-1-[4-(2-naphthhyl)phenyl] butan-2-one dihydrochlorhydrate] | 205 °C (dec.) |  |  |
| N[C@@H](Cc1c[nH]cn1)C(=O)Cc1ccc(CCc2ccccc2)cc1 (hydrate or solvate) [Compound 2i, (3S)-3-amino-4-(1H-imidazol-4-yl)-1-[4-(2-phenylethyl)phenyl] butan-2-one dihydrochlorhydrate] | 168 to 170 °C |  |  |
| N[C@@H](Cc1c[nH]cn1)C(=O)Cc1ccc(/C=C/c2ccccc2)cc1 (hydrate or solvate) [Compound 2j, (3S)-3-amino-4-(1H-imidazol-4-yl)-1-{4-[(E)-2-phenylvinyl]phenyl}butan-2-one dihydrochlorhydrate] | 195 °C (dec.) |  |  |
| Cc1ccc(/C=C/c2ccc(CC(=O)[C@@H](N)Cc3c[nH]cn3)cc2)cc1 (hydrate or solvate) [Compound 2k, (3S)-3-amino-4-(1H-imidazol-4-yl)-1-{4-[(E)-2-(4-methylphenyl)vinyl]phenyl}butan-2-one dihydrochlorhydrate] | 200 °C (dec.) |  |  |
| N[C@@H](Cc1c[nH]cn1)C(=O)Cc1ccc(/C=C/c2ccc(C(F)(F)F)cc2)cc1 (hydrate or solvate) [Compound 2l, (3S)-3-amino-4-(1H-imidazol-4-yl)-1-(4-{(E)-2-[4-(trifluoromethyl)phenyl]vinyl}phenyl) butan-2-one dihydrochlorhydrate] | 186 °C (dec.) |  |  |
| N[C@@H](Cc1c[nH]cn1)C(=O)Cc1ccc(/C=C/Cc2ccccc2)cc1 (hydrate or solvate) [Compound 2m, (3S)-3-amino-4-(1H-imidazol-4-yl)-1-{4-[(1E)-3-phenylprop-1-en-1-yl]phenyl}butan-2-one dihydrochlorhydrate] | 178 to 180 °C |  |  |
| N[C@@H](Cc1c[nH]cn1)C(=O)Cc1ccc(C#Cc2ccccc2)cc1 (hydrate or solvate) [Compound 3a, (3S)-3-amino-4-(1H-imidazol-4-yl)-1-[4-(phenylethynyl)phenyl] butan-2-one dihydrochlorhydrate] | 194 °C (dec.) |  |  |

| Compound | melting point | IC50 [1] | also measured |
| --- | --- | --- | --- |
| Cc1ccc(C#Cc2ccc(CC(=O)[C@@H](N)Cc3c[nH]cn3)cc2)cc1 (hydrate or solvate) [Compound 3b, (3S)-3-amino-4-(1H-imidazol-4-yl)-1-{4-[(4-methylphenyl)ethynyl]phenyl}butan-2-one dihydrochlorhydrate] | 181 °C (dec.) |  |  |
| CCCCCc1ccc(C#Cc2ccc(CC(=O)[C@@H](N)Cc3c[nH]cn3)cc2)cc1 (hydrate or solvate) [Compound 3d, (3S)-3-amino-4-(1H-imidazol-4-yl)-1-{4-[(4-pentylphenyl)ethynyl]phenyl}butan-2-one dihydrochlorhydrate] | 184 °C (dec.) |  |  |
| Cc1ccc(-c2ccc(CC(=O)[C@@H](N)Cc3c[nH]cn3)cc2)cc1 [Compound 2a, (3S)-3-amino-4-(1H-imidazol-4-yl)-1-(4′-methylbiphenyl-4-yl)butan-2-one dihydrochlorhydrate] |  | 30 nM | inhibition at 50 µM (B. suis): 30%; inhibition at 100 µM (B. suis): 40% |
| CCCCc1ccc(-c2ccc(CC(=O)[C@@H](N)Cc3c[nH]cn3)cc2)cc1 [Compound 2b, (3S)-3-amino-1-(4′-butylbiphenyl-4-yl)-4-(1H-imidazol-4-yl) butan-2-one dihydrochlorhydrate] |  | 40 nM | inhibition at 50 µM (B. suis): 50%; inhibition at 100 µM (B. suis): 60% |
| COc1ccc(-c2ccc(CC(=O)[C@@H](N)Cc3c[nH]cn3)cc2)cc1 [Compound 2c, (3S)-3-amino-4-(1H-imidazol-4-yl)-1-(4′-methoxybiphenyl-4-yl)butan-2-one dihydrochlorhydrate] |  | 20 nM | inhibition at 50 µM (B. suis): 30%; inhibition at 100 µM (B. suis): 60% |
| N[C@@H](Cc1c[nH]cn1)C(=O)Cc1ccc(-c2ccc(C(F)(F)F)cc2)cc1 [Compound 2d, (3S)-3-amino-4-(1H-imidazol-4-yl)-1-[4′-(trifluoromethyl)biphenyl-4-yl]butan-2-one dihydrochlorhydrate] |  | 30 nM | inhibition at 50 µM (B. suis): 70%; inhibition at 100 µM (B. suis): 90% |
| N[C@@H](Cc1c[nH]cn1)C(=O)Cc1ccc(-c2ccc(Oc3ccccc3)cc2)cc1 [Compound 2f, (3S)-3-amino-4-(1H-imidazol-4-yl)-1-(4′-phenoxybiphenyl-4-yl)butan-2-one dihydrochlorhydrate] |  | 70 nM | inhibition at 50 µM (B. suis): 70%; inhibition at 100 µM (B. suis): 90% |
| N[C@@H](Cc1c[nH]cn1)C(=O)Cc1ccc(-c2ccc3ccccc3c2)cc1 [Compound 2h, (3S)-3-amino-4-(1H-imidazol-4-yl)-1-[4-(2-naphthhyl)phenyl] butan-2-one dihydrochlorhydrate] |  | 30 nM | Inhibition of the growth of the bacteria in liquid medium (B. suis): completely inhibit; inhibition at 50 µM (B. suis): 100%; inhibition at 100 µM (B. suis): 100% |
| N[C@@H](Cc1c[nH]cn1)C(=O)Cc1ccc(CCc2ccccc2)cc1 [Compound 2i, (3S)-3-amino-4-(1H-imidazol-4-yl)-1-[4-(2-phenylethyl)phenyl] butan-2-one dihydrochlorhydrate] |  | 13 nM |  |
| N[C@@H](Cc1c[nH]cn1)C(=O)Cc1ccc(/C=C/c2ccccc2)cc1 [Compound 2j, (3S)-3-amino-4-(1H-imidazol-4-yl)-1-{4-[(E)-2-phenylvinyl]phenyl}butan-2-one dihydrochlorhydrate] |  | 25 nM |  |
| Cc1ccc(/C=C/c2ccc(CC(=O)[C@@H](N)Cc3c[nH]cn3)cc2)cc1 [Compound 2k, (3S)-3-amino-4-(1H-imidazol-4-yl)-1-{4-[(E)-2-(4-methylphenyl)vinyl]phenyl}butan-2-one dihydrochlorhydrate] |  | 40 nM | Inhibition of the growth of the bacteria in liquid medium (B. suis): completely inhibit; inhibition at 50 µM (B. suis): 100%; inhibition at 100 µM (B. suis): 100% |
| N[C@@H](Cc1c[nH]cn1)C(=O)Cc1ccc(/C=C/c2ccc(C(F)(F)F)cc2)cc1 [Compound 2l, (3S)-3-amino-4-(1H-imidazol-4-yl)-1-(4-{(E)-2-[4-(trifluoromethyl)phenyl]vinyl}phenyl) butan-2-one dihydrochlorhydrate] |  | 65 nM |  |
| N[C@@H](Cc1c[nH]cn1)C(=O)Cc1ccc(/C=C/Cc2ccccc2)cc1 [Compound 2m, (3S)-3-amino-4-(1H-imidazol-4-yl)-1-{4-[(1E)-3-phenylprop-1-en-1-yl]phenyl}butan-2-one dihydrochlorhydrate] |  | 30 nM |  |
| Cc1ccc(C#Cc2ccc(CC(=O)[C@@H](N)Cc3c[nH]cn3)cc2)cc1 [Compound 3b, (3S)-3-amino-4-(1H-imidazol-4-yl)-1-{4-[(4-methylphenyl)ethynyl]phenyl}butan-2-one dihydrochlorhydrate] |  | 40 nM |  |
| CC(C)(C)c1ccc(C#Cc2ccc(CC(=O)[C@@H](N)Cc3c[nH]cn3)cc2)cc1 [Compound 3c, (3S)-3-amino-1-{4-[(4-tert-butylphenyl)ethynyl]phenyl}-4-(1H-imidazol-4-yl)butan-2-one dihydrochlorhydrate] |  | 65 nM | inhibition at 50 µM (B. suis): 30%; inhibition at 100 µM (B. suis): 30% |
| CCCCCc1ccc(C#Cc2ccc(CC(=O)[C@@H](N)Cc3c[nH]cn3)cc2)cc1 [Compound 3d, (3S)-3-amino-4-(1H-imidazol-4-yl)-1-{4-[(4-pentylphenyl)ethynyl]phenyl}butan-2-one dihydrochlorhydrate] |  | 8.5 nM | inhibition at 50 µM (B. suis): 30%; inhibition at 100 µM (B. suis): 30% |

Reference: patent US8372871B2, “Histidinol dehydrogenase inhibitors, and use thereof as medicaments” (priority 2008, dated 2013)
